Key:
[1] = Reducing power assay (reduction of Iron-III to Iron-II); type: biochemical
Method: The assay is based on the reduction of Iron-III to Iron-II. Results are expressed as % reduction when compared to the control which reduced all Iron-III at a concentration of 5 mg/mL.

[2] = Protection of lutein esters, milling/mixing method, 60° C. for 4 hours; type: physicochemical; conditions: mix method
Method: 300 mg lutein esters and 30 mg α-Tocopherol were added to a mortar, completely milled and maintained at a temperature of 60° C. for 4 hours. The lutein content was measured with the UV-Visible spectrophotometric method as described above. […] The lutein content was measured with a UV-Visible spectrophotometer as described above. 300 mg lutein esters and a predetermined amount of lipoic acid were placed in a mortar, milled and then subjected to an elevated temperature of 60° C. for 4 hours. The lutein content was determined by the UV-Visible spectrophotometric method described above.

[3] = Inhibition of the autooxidation of linoleic acid; type: biochemical; conditions: 50° C., up to 72 hours
Method: As a positive control (full inhibition) 10 mM butyl-hydroxytoluene (BHT)/L was introduced. Each sample was prepared in 3 replicates. […] Each sample was prepared in 3 replicates. Samples were incubated with light protection at 50° C.

CaCo-2 cells = assay: CACO-2 absorption test (Free and Total LA/DHLA in cells); type: in vitro ADME
[4] = Stability in CaCo-2 incubation medium (Free and Total LA/DHLA in medium); type: in vitro ADME; conditions: for Total LA in medium (after NaBH4 reduction) / Free LA in medium: 1 mg LA/ml or 1.46 mg LAORN/ml medium
Method: For stability investigations, the incubation medium was incubated at 37° C. for 1 hour. Thereafter, the medium was centrifuged and used for further analysis.

Residual Ratio/% of lutein esters ([2]; 300 mg lutein esters, Dosage of LA 3 mg, Content of LA 1.0%) [%]	Residual Ratio/% of lutein esters ([2]; Dosage of LA 15 mg, Content of LA 4.8%) [%]	Residual Ratio/% of lutein esters ([2]; Dosage of LA 30 mg, Content of LA 9.1%) [%]	Residual Ratio/% of lutein esters ([2]; Dosage of LA 60 mg, Content of LA 16.7%) [%]	Residual Ratio/% of lutein esters ([2]; Dosage of LA 150 mg, Content of LA 33.3%) [%]	Residual Ratio/% of lutein esters ([2]; Dosage of LA 300 mg, Content of LA 50.0%) [%]	Total LA in cells (after NaBH4 reduction) (CaCo-2 cells; CaCo-2 cells incubated 30 min)	Total LA in cells (after NaBH4 reduction) (CaCo-2 cells; CaCo-2 cells incubated 60 min)	Total LA in medium (after NaBH4 reduction) ([4]; 60 min)	Free LA in medium ([4]; 60 min, 37° C.) [mg/mL]	Free LA in medium ([4]; Initial) [mg/mL]	Total LA in medium (after NaBH4 reduction) ([4]; Initial)	stability under the test assay conditions ([4]; incubation medium, 37° C., 1 hour, recovery after reduction to DHLA)	SMILES	% Reduction compared to Control ([1]; Conc. 1 mg/mL) [%]	% Reduction compared to Control ([1]; Conc. 5 mg/mL) [%]	% Reduction compared to Control ([1]; Conc. 10 mg/mL) [%]	protection against autooxidation of linoleic acid ([3]; FIG. 7: 5 mM LA/L, 5 mM ORN/L, 5 mM LA/L + 5 mM ORN/L, 10 mM LAORN/L)	protection against autooxidation of linoleic acid ([3]; FIG. 8: 50 mM LA/L, 50 mM ORN/L, 50 mM LA/L + 50 mM ORN/L, 100 mM LAORN/L)
–	–	–	–	–	–	–	–	–	–	–	–	–	[BH4-].[Na+] [Control, NaBH4]	22.7	100.0	100.0	–	–
42.7	46.5	79.5	80.1	79.4	82.4	bld	bld	bld	0.74	0.89	bld	stable	O=C(O)CCCCC1CCSS1 (stereo not drawn) [LA, 1,2-dithiolane-3-pentanoic acid]	7.2	22.2	24.7	full protection	full protection

— patent US8278358B2, “Lipoic acid derivatives” (Omnica GmbH, priority 2006, dated 2012)
